Experimental data reported in PubChem BioAssay AID1963873 (Molecular Pharmacology Branch, DTP, NCI, 2024).

Test system: 276233-004-R-J1-PDC KRAS spheroids with HUVEC/MSC, viability
Experiment: Anticancer human tumor 276233-004-R-J1-PDC patient-derived colon adenocarcinoma cell line growth inhibition [KRAS2]
Details: for IC50: curve of first compound; for viability, T/C: stronger effect = lower value
How it was run: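 Combination screen of spheroid viability in tumor-cell co-cultures with endothelial (HUVEC) and mesenchymal stem cell stroma. Each agent was tested in half-log dilutions, topping at clinical Cmax or at 10 microM without a known Cmax.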

[1] = second compound 0.1 µM, first compound 0.0316 µM
[2] = second compound 0.1 µM, first compound 0.1 µM
[3] = second compound 0.1 µM, first compound 0.316 µM
[4] = second compound 0.1 µM, first compound 1 µM
[5] = second compound 0.1 µM, first compound 3.16 µM
[6] = second compound 0.1 µM, first compound 10 µM
[7] = second compound 0.316 µM, first compound 0.0316 µM
[8] = second compound 0.316 µM, first compound 0.1 µM
[9] = second compound 0.316 µM, first compound 0.316 µM
[10] = second compound 0.316 µM, first compound 1 µM
[11] = second compound 0.316 µM, first compound 3.16 µM
[12] = second compound 0.316 µM, first compound 10 µM
[13] = second compound 1 µM, first compound 0.0316 µM
[14] = second compound 1 µM, first compound 0.1 µM
[15] = second compound 1 µM, first compound 0.316 µM
[16] = second compound 1 µM, first compound 1 µM
[17] = second compound 1 µM, first compound 3.16 µM
[18] = second compound 1 µM, first compound 10 µM
[19] = second compound 3.16 µM, first compound 0.0316 µM
[20] = second compound 3.16 µM, first compound 0.1 µM
[21] = second compound 3.16 µM, first compound 0.316 µM
[22] = second compound 3.16 µM, first compound 1 µM
[23] = second compound 3.16 µM, first compound 3.16 µM
[24] = second compound 3.16 µM, first compound 10 µM
[25] = second compound 10 µM, first compound 0.0316 µM
[26] = second compound 10 µM, first compound 0.1 µM
[27] = second compound 10 µM, first compound 0.316 µM
[28] = second compound 10 µM, first compound 1 µM
[29] = second compound 10 µM, first compound 3.16 µM
[30] = second compound 10 µM, first compound 10 µM
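Further: cells exposed to agents for seven days before viability read.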
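Wherever viability, T/C is given: 100% = DMSO vehicle control wells and lower values mean fewer viable cells.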

SMILES	IC50 (second compound 0.1 µM) [nM]	IC50 (second compound 0.316 µM) [nM]	IC50 (second compound 1 µM) [nM]	IC50 (second compound 3.16 µM) [nM]	IC50 (second compound 10 µM) [nM]	viability, T/C [1] [%]	viability, T/C [2] [%]	viability, T/C [3] [%]	viability, T/C [4] [%]	viability, T/C [5] [%]	viability, T/C [6] [%]	viability, T/C [7] [%]	viability, T/C [8] [%]	viability, T/C [9] [%]	viability, T/C [13] [%]	viability, T/C [14] [%]	viability, T/C [19] [%]	viability, T/C [20] [%]	viability, T/C [25] [%]	viability, T/C [26] [%]	also measured
CCNC(=O)CC1N=C(c2ccc(Cl)cc2)c2cc(OC)ccc2-n2c(C)nnc21 (stereo not given) + CC1OCC2(CCN(c3cnc(Sc4ccnc(N)c4Cl)c(N)n3)CC2)C1N	> 10000	7120	3160	392	530	94.5	85.6	71.5	66.8	56.4	72.8	89	73.1	73.6	79.8	71.5	72.6	71.6	55	56.6	viability, T/C [10]: 58.2%; viability, T/C [11]: 52.5%; viability, T/C [12]: 49.1%; viability, T/C [15]: 63.9%; viability, T/C [16]: 52.5%; viability, T/C [17]: 46.9%; viability, T/C [18]: 52.2%; viability, T/C [21]: 51.5%; viability, T/C [22]: 44.4%; viability, T/C [23]: 43.3%; viability, T/C [24]: 41.4%; viability, T/C [27]: 52.2%; viability, T/C [28]: 48.2%; viability, T/C [29]: 41.6%; viability, T/C [30]: 42.4%
Cn1nccc1Nc1nccc(-c2cc3c(s2)C(C)(C)N(CCN2CCOCC2)C3=O)n1 + CC1OCC2(CCN(c3cnc(Sc4ccnc(N)c4Cl)c(N)n3)CC2)C1N	2310	830	476	320	< 31.6	86.9	82.3	76.8	70.3	37.7	47	79.6	76.5	65.5	78.5	73.2	60.7	62.3	48.4	38.2	viability, T/C [10]: 47.2%; viability, T/C [11]: 33.1%; viability, T/C [12]: 28.8%; viability, T/C [15]: 56.2%; viability, T/C [16]: 38%; viability, T/C [17]: 26%; viability, T/C [18]: 22.2%; viability, T/C [21]: 49.4%; viability, T/C [22]: 30.3%; viability, T/C [23]: 19.7%; viability, T/C [24]: 16.4%; viability, T/C [27]: 32.1%; viability, T/C [28]: 23.5%; viability, T/C [29]: 19%; viability, T/C [30]: 16.9%
Cn1ncnc1[C@H]1c2n[nH]c(=O)c3cc(F)cc(c23)N[C@@H]1c1ccc(F)cc1 + CC1OCC2(CCN(c3cnc(Sc4ccnc(N)c4Cl)c(N)n3)CC2)C1N	> 100	> 100	> 100	> 100	> 100	94.3	85.1					74.9	89.6		69.4	65.6	59.5	62.9	54.2	54	viability, T/C (second compound 0.1 µM, first compound 0.000316 µM): 95.8%; viability, T/C (second compound 0.1 µM, first compound 0.001 µM): 99.4%; viability, T/C (second compound 0.1 µM, first compound 0.00316 µM): 102%; viability, T/C (second compound 0.1 µM, first compound 0.01 µM): 99%; viability, T/C (second compound 0.316 µM, first compound 0.000316 µM): 92.5%; viability, T/C (second compound 0.316 µM, first compound 0.001 µM): 83.5%; viability, T/C (second compound 0.316 µM, first compound 0.00316 µM): 98.1%; viability, T/C (second compound 0.316 µM, first compound 0.01 µM): 88.3%; viability, T/C (second compound 1 µM, first compound 0.000316 µM): 88.9%; viability, T/C (second compound 1 µM, first compound 0.001 µM): 95.2%; viability, T/C (second compound 1 µM, first compound 0.00316 µM): 104%; viability, T/C (second compound 1 µM, first compound 0.01 µM): 82.6%; viability, T/C (second compound 3.16 µM, first compound 0.000316 µM): 83.8%; viability, T/C (second compound 3.16 µM, first compound 0.001 µM): 70.1%; viability, T/C (second compound 3.16 µM, first compound 0.00316 µM): 68.8%; viability, T/C (second compound 3.16 µM, first compound 0.01 µM): 52.8%; viability, T/C (second compound 10 µM, first compound 0.000316 µM): 68.8%; viability, T/C (second compound 10 µM, first compound 0.001 µM): 66.4%; viability, T/C (second compound 10 µM, first compound 0.00316 µM): 64.9%; viability, T/C (second compound 10 µM, first compound 0.01 µM): 64.5%
